The NIST ThermoML archive (doi:10.1021/je400722h)
Numbers after ± are expanded uncertainties.

Columns and labels:
[1] = 101 kPa, Liquid; for speed of sound: Pulse-echo method; for mass density: Vibrating tube method
[2] = xn = mol fraction of the nth substance listed; details: 101 kPa, Liquid, x2 = 0; for speed of sound: Pulse-echo method; for mass density: Vibrating tube method

| Compound | speed of sound ([1]; 298.15 K) | mass density ([1]; 298.15 K) | speed of sound ([1]; 303.15 K) | mass density ([1]; 303.15 K) | speed of sound ([1]; 308.15 K) | mass density ([1]; 308.15 K) | speed of sound ([2]; 298.15 K) | mass density ([2]; 298.15 K) | speed of sound ([2]; 303.15 K) | mass density ([2]; 303.15 K) | speed of sound ([2]; 308.15 K) | mass density ([2]; 308.15 K) |
| --- | --- | --- | --- | --- | --- | --- | --- | --- | --- | --- | --- | --- |
| C1COCO1 [1,3-dioxolane] | 1338.7 ± 1.1 m/s | 1058.9 ± 1 kg/m3 | 1316.8 ± 1 m/s | 1052.6 ± 1 kg/m3 | 1294.7 ± 1 m/s | 1046.3 ± 1 kg/m3 | – | – | – | – | – | – |
| C1COCO1 [1,3-dioxolane] + Cc1ccccc1Cl | – | – | – | – | – | – | 1338.7 ± 1.1 m/s | 1058.9 ± 1 kg/m3 | 1316.8 ± 1 m/s | 1052.6 ± 1 kg/m3 | 1294.7 ± 1 m/s | 1046.3 ± 1 kg/m3 |
| C1COCCO1 [1,4-dioxane] | 1346 ± 1.1 m/s | 1027.9 ± 1 kg/m3 | 1324.4 ± 1.1 m/s | 1022.3 ± 1 kg/m3 | 1302.5 ± 1.1 m/s | 1016.6 ± 1 kg/m3 | – | – | – | – | – | – |
| C1COCCO1 [1,4-dioxane] + Cc1ccccc1Cl | – | – | – | – | – | – | 1346 ± 1.1 m/s | 1027.9 ± 1 kg/m3 | 1324.4 ± 1.1 m/s | 1022.3 ± 1 kg/m3 | 1302.5 ± 1.1 m/s | 1016.6 ± 1 kg/m3 |
| Cc1ccccc1Cl [2-chlorotoluene] | 1298.7 ± 1.2 m/s | 1077.3 ± 1 kg/m3 | 1280.7 ± 1.2 m/s | 1072.5 ± 1 kg/m3 | 1262.7 ± 1.2 m/s | 1067.6 ± 1 kg/m3 | – | – | – | – | – | – |
| C1CCOCC1 [tetrahydropyran] | 1269.8 ± 1 m/s | 879.13 ± 1 kg/m3 | 1246.8 ± 1 m/s | 873.99 ± 1 kg/m3 | 1224.4 ± 1 m/s | 868.83 ± 1 kg/m3 | – | – | – | – | – | – |
| C1CCOCC1 [tetrahydropyran] + Cc1ccccc1Cl | – | – | – | – | – | – | 1269.8 ± 1 m/s | 879.13 ± 1 kg/m3 | 1246.8 ± 1 m/s | 873.99 ± 1 kg/m3 | 1224.4 ± 1 m/s | 868.83 ± 1 kg/m3 |
